# From US9399638B2, “Substituted pyridine compounds as CRAC modulators” (LUPIN LIMITED, priority 2012, dated 2016)
# Tested on: IL-2 secretion by Jurkat T cells
# Assay: Inhibition of IL-2 secretion
# Assay type: cell-based
# Conditions: Homo sapiens; Jurkat T cells stimulated with PHA, 20 to 24 hours, IL-2 by ELISA
# Description: The CRAC channel modulatory activity of the compounds were thus evaluated by measuring the secretion of IL-2 by antigen stimulated T-cells in vitro. Alternatively, such activity can also be evaluated by assay methods known to one skilled in the art.
# Inhibition of IL-2 secretion: Jurkat T cells were seeded at a density of 0.5 to 1 million cells per well in RPMI medium. Test compounds from this invention were added to the cells at different concentrations. This was followed by the addition of PHA, a T cell mitogen after 10 minutes. The cells were then incubated for 20 to 24 hours in a CO2 incubator at 37° C. After incubation with the compounds, cells were centrifuged, the supernatant was collected and processed for ELISA to quantitate the amount of IL-2 secreted. A commercial ELISA kit (R&D Systems, Inc. Minneapolis, Minn., USA) was used to estimate the IL-2 concentrations. Amount of IL-2 secreted by cells stimulated with PHA was considered as a 100% maximal signal and the decrease in amount of IL-2 secreted by cells treated with the test compounds was expressed as percent inhibition of the maximal signal. The dose response data was analyzed using 4-parametric sigmoidal dose response (variable slope) curve—fit.
row,SMILES,IC50 [nM]
1,"Cc1ncc(-c2nn(C)c(=O)o2)cc1-c1ccc(NC(=O)c2c(F)cccc2F)cc1 [Example 1, 2,6-Difluoro-N-(4-(2-methyl-5-(4-methyl-5-oxo-4,5-dihydro-1,3,4-oxadiazol-2-yl)pyridin-3-yl)phenyl)benzamide]",100 to 1000
2,"CCc1cnc(-c2ccc(C(=O)Nc3c(F)cccc3F)cc2)cc1-c1nn(C)c(=O)o1 [Example 22, N-(2,6-Difluorophenyl)-4-(5-ethyl-4-(4-methyl-5-oxo-4,5-dihydro-1,3,4-oxadiazol-2-yl)pyridin-2-yl)benzamide]",> 1000
3,"Cn1nc(-c2cnc(-c3ccc(NC(=O)c4c(F)cccc4F)cc3)c(C3CC3)c2)oc1=O [Example 66, N-(4-(3-Cyclopropyl-5-(4-methyl-5-oxo-4,5-dihydro-1,3,4-oxadiazol-2-yl)pyridin-2-yl)phenyl)-2,6-difluorobenzamide]",100 to 1000
4,"CCc1ncc(-c2nn(C)c(=O)o2)cc1-c1ccc(C(=O)Nc2c(F)cccc2F)cc1 [Example 3, N-(2,6-Difluorophenyl)-4-(2-ethyl-5-(4-methyl-5-oxo-4,5-dihydro-1,3,4-oxadiazol-2-yl)pyridin-3-yl)benzamide]",100 to 1000
5,"CCc1cc(-c2ccc(NC(=O)c3c(F)cccc3F)cc2)nc(-c2nn(C)c(=O)o2)c1 [Example 64, N-(4-(4-Ethyl-6-(4-methyl-5-oxo-4,5-dihydro-1,3,4-oxadiazol-2-yl)pyridin-2-yl)phenyl)-2,6-difluorobenzamide]",> 1000
6,"Cc1ncc(-c2nn(C)c(=O)o2)cc1-c1ccc(C(=O)Nc2c(F)cccc2F)s1 [Example 58, N-(2,6-Difluorophenyl)-5-(2-methyl-5-(4-methyl-5-oxo-4,5-dihydro-1,3,4-oxadiazol-2-yl)pyridin-3-yl)thiophene-2-carboxamide]",100 to 1000

# The remaining lines, values ahead:
row,IC50 [nM],SMILES
1,100 to 1000,"CCc1ncc(-c2nn(C)c(=O)o2)cc1-c1cc(C)c(NC(=O)c2c(F)cccc2F)cn1 [Example 41B, N-(2′-Ethyl-4-methyl-5′-(4-methyl-5-oxo-4,5-dihydro-1,3,4-oxadiazol-2-yl)-[2,3′-bipyridin]-5-yl)-2,6-difluorobenzamide]"
2,< 100,"Cn1nc(-c2cnc(C3CC3)c(-c3ccc(C(=O)Nc4c(F)cccc4Cl)s3)c2)oc1=O [Example 42, N-(2-Chloro-6-fluorophenyl)-5-(2-cyclopropyl-5-(4-methyl-5-oxo-4,5-dihydro-1,3,4-oxadiazol-2-yl)pyridin-3-yl)thiophene-2-carboxamide]"
3,< 100,"CNc1ncc(-c2nn(C)c(=O)o2)cc1-c1ccc(C(=O)Nc2c(F)cccc2F)s1 [Example 61, N-(2,6-Difluorophenyl)-5-(5-(4-methyl-5-oxo-4,5-dihydro-1,3,4-oxadiazol-2-yl)-2-(methylamino)pyridin-3-yl)thiophene-2-carboxamide]"
4,< 100,"Cn1nc(-c2cnc(C(F)(F)F)c(-c3ccc(C(=O)Nc4c(F)cccc4F)s3)c2)oc1=O [Example 60, N-(2,6-Difluorophenyl)-5-(5-(4-methyl-5-oxo-4,5-dihydro-1,3,4-oxadiazol-2-yl)-2-(trifluoromethyl)pyridin-3-yl)thiophene-2-carboxamide]"
5,< 100,"Cn1nc(-c2cnc(C(F)(F)F)c(-c3ccc(NC(=O)c4c(F)cccc4F)cc3)c2)oc1=O [Example 7, 2,6-difluoro-N-(4-(5-(4-methyl-5-oxo-4,5-dihydro-1,3,4-oxadiazol-2-yl)-2-(trifluoromethyl)pyridin-3-yl)phenyl)benzamide]"
6,< 100,CCc1ncc(-c2nn(C)c(=O)o2)cc1-c1cnc(NC(=O)c2c(F)cccc2F)cc1C [Example 41]
7,< 100,"CCc1ncc(-c2nn(C)c(=O)o2)cc1-c1ccc(C(=O)Nc2c(F)cccc2F)s1 [Example 57, N-(2,6-Difluorophenyl)-5-(2-ethyl-5-(4-methyl-5-oxo-4,5-dihydro-1,3,4-oxadiazol-2-yl)pyridin-3-yl)thiophene-2-carboxamide]"
